Laboratory results reported in patent publication EP1343508B1, “USE OF AN OESTROGEN IN THE MANUFACTURE OF A COMPOSITION CONTAINING OESTROGEN FOR THE TREATMENT OF ATROPHIC VAGINITIS” (Novo Nordisk Femcare AG, priority 2000, dated 2002).
Marks after values point to notes of the source that are not given here.

Columns and labels:
[1] = system: FSH; assay: Serum FSH concentration (immunoradiometric assay), Example 2; format: in vivo, postmenopausal women; settings: 25 µg E2; Week 12
Description: Maturation values of vaginal mucosal cells were assessed as an indicator of changes in the condition of the vaginal mucosa in response to treatment.
After the screening visit, patients received no study treatment during the 4-week run-in period prior to the baseline visit. […] The vaginal tablets were identical in appearance. Patients inserted 1 tablet intravaginally, once daily for the initial 2 weeks of the study and then twice per week (Sunday and Thursday) for the remaining 10 weeks. Patients were instructed to use their medication at a consistent time each day, preferably in the morning.
Upon presentation to the clinic for each visit, a vaginal cytology specimen was obtained. Patients then inserted the tablets. […] The blood samples obtained at 30 minutes before insertion, and at 6, 12, and 24 hours after insertion were also used to determine the FSH concentration via immunoradiometric assay.
Data for area under the curve and maximal concentration were converted to a logarithmic scale, and changes from first dose (at the baseline visit) in the logarithmic values were estimated using 95% confidence intervals derived from paired t-tests. […] Differences within treatment groups in FSH concentration were determined using the Wilcoxon signed rank test based on changes from baseline in mean concentrations at weeks 2 and 12. […]

[2] = system: postmenopausal women with atrophic vaginitis; assay: Vaginal health composite score (investigator rating), Example 3; format: in vivo; settings: each treatment group (25 or 10 µg E2); Week 0 (baseline); scale 0-3
Description: Efficacy was measured with composite scores of vaginal symptoms (dryness, soreness, and irritation) and vaginal health (secretions, epithelial integrity, surface thickness, and pH). Vaginal and urethral cytology analyses were also performed, and the vaginal maturation value was determined. Safety assessments included endometrial biopsies. […] All vaginal tablets were identical in appearance. Patients inserted 1 tablet daily for 14 days. Thereafter, patients inserted 1 tablet twice per week (Sunday and Thursday) for the remainder of the trial. Patients were to insert the tablets at the same time each day (preferably at bedtime). Patients were evaluated for efficacy and safety at Week - 4 (screening), Week 0 (baseline), and Weeks 2, 7, and 12. […] Differences within and between treatment groups were analyzed using an analysis of variance (ANOVA). […] Efficacy was measured with composite scores of vaginal symptoms (dryness, soreness, and irritation) and vaginal health (secretions, epithelial integrity, surface thickness, and pH). Vaginal and urethral cytology analyses were also performed, and the vaginal maturation value was determined. […] Patients were evaluated for efficacy and safety at Week - 4 (screening), Week 0 (baseline), and Weeks 2, 7, and 12. […] Differences within and between treatment groups were analyzed using an analysis of variance (ANOVA).

[3] = system: vaginal mucosa; assay: Vaginal maturation value, Example 3; format: in vivo, postmenopausal women
Description: (§1) Efficacy was measured with composite scores of vaginal symptoms (dryness, soreness, and irritation) and vaginal health (secretions, epithelial integrity, surface thickness, and pH). Vaginal and urethral cytology analyses were also performed, and the vaginal maturation value was determined. Safety assessments included endometrial biopsies.
(§2) All vaginal tablets were identical in appearance. Patients inserted 1 tablet daily for 14 days. Thereafter, patients inserted 1 tablet twice per week (Sunday and Thursday) for the remainder of the trial. Patients were to insert the tablets at the same time each day (preferably at bedtime). Patients were evaluated for efficacy and safety at Week - 4 (screening), Week 0 (baseline), and Weeks 2, 7, and 12.
(§3) Vaginal and urethral cell samples were harvested and analyzed by independent cytologists to determine the percentages of parabasal, intermediate, and superficial cells. Maturation values were calculated according to the following equation: maturation value = 1.0 × [superficial cells, %] + 0.5 × [intermediate cells, %] [formula] Endometrial biopsies were performed at the end of the study in patients with intact uteri. The number of patients with abnormal biopsies was compared between treatment groups.

[4] = system: endometrium; assay: Endometrial biopsy at end of study, Example 3; format: in vivo, postmenopausal women; settings: Week 12, N = 32
Description: as §1, §3

[5] = system: postmenopausal women with atrophic vaginitis; assay: Patients with vaginal pH below 5.5, Example 3; format: in vivo
Description: Efficacy was measured with composite scores of vaginal symptoms (dryness, soreness, and irritation) and vaginal health (secretions, epithelial integrity, surface thickness, and pH). Vaginal and urethral cytology analyses were also performed, and the vaginal maturation value was determined. Safety assessments included endometrial biopsies. […] All vaginal tablets were identical in appearance. Patients inserted 1 tablet daily for 14 days. Thereafter, patients inserted 1 tablet twice per week (Sunday and Thursday) for the remainder of the trial. Patients were to insert the tablets at the same time each day (preferably at bedtime). Patients were evaluated for efficacy and safety at Week - 4 (screening), Week 0 (baseline), and Weeks 2, 7, and 12. Investigators used a severity scale of none, mild, moderate, or severe to assess vaginal health characteristics (secretions, epithelial integrity, surface thickness, color, and pH). Severity categories were assigned ascending scores from 0 (none) to 3 (severe) for analysis. To avoid multiple endpoint issues, composite scores were defined. A composite score for vaginal health was defined as the average of the individual vaginal health characteristic scores. The composite score and the change from baseline for the composite score were examined at each time point. Differences within and between treatment groups were analyzed using an analysis of variance (ANOVA). […] Efficacy was measured with composite scores of vaginal symptoms (dryness, soreness, and irritation) and vaginal health (secretions, epithelial integrity, surface thickness, and pH). Vaginal and urethral cytology analyses were also performed, and the vaginal maturation value was determined. Safety assessments included endometrial biopsies. […] All vaginal tablets were identical in appearance. Patients inserted 1 tablet daily for 14 days. Thereafter, patients inserted 1 tablet twice per week (Sunday and Thursday) for the remainder of the trial. Patients were to insert the tablets at the same time each day (preferably at bedtime). Patients were evaluated for efficacy and safety at Week - 4 (screening), Week 0 (baseline), and Weeks 2, 7, and 12. Investigators used a severity scale of none, mild, moderate, or severe to assess vaginal health characteristics (secretions, epithelial integrity, surface thickness, color, and pH). Severity categories were assigned ascending scores from 0 (none) to 3 (severe) for analysis. To avoid multiple endpoint issues, composite scores were defined. A composite score for vaginal health was defined as the average of the individual vaginal health characteristic scores. The composite score and the change from baseline for the composite score were examined at each time point. Differences within and between treatment groups were analyzed using an analysis of variance (ANOVA).

[6] = system: superficial vaginal and urethral cells; assay: Superficial vaginal and urethral cells taken together, subjects per category, Example 3; format: in vivo, postmenopausal women; settings: for percentage of subjects with both superficial vaginal and urethral cells less than or equal to 5% / subjects with percentages of both superficial vaginal and urethral cells less than or equal to 5%: Week 0; for percentage of subjects with increases in percentages of both superficial vaginal and urethral cells / subjects with increases in percentages of both superficial vaginal and urethral cells: Week 12
Description: as §1, §2, §3

[7] = system: superficial urethral cells; assay: Urethral cytology, percentage of superficial cells, Example 3; format: in vivo, postmenopausal women
Description: as §1, §2, §3

[8] = each treatment group (25 or 10 µg E2), Week 0

SMILES: C[C@]12CC[C@@H]3c4ccc(O)cc4CC[C@H]3[C@@H]1CC[C@@H]2O [E2, 17β-estradiol]
- patients with mean FSH concentrations below 35 mIU/mL [1]: 3 patients
- vaginal health composite score [2]: approximately 1.7
- maturation values ([3]; active treatment groups (25 or 10 µg E2), Week 12): approximately 60%
- maturation values [3, 8]: approximately 45%
- Endometrial Biopsy Result Abnormal, percentage of patients ([4]; 10 µg E2): 0.0%
- Endometrial Biopsy Result Normal, number of patients ([4]; 10 µg E2): 25
- Endometrial Biopsy Result Normal, percentage of patients ([4]; 10 µg E2): 78.1%
- Endometrial Biopsy Result Other, number of patients ([4]; 10 µg E2): 7
- Endometrial Biopsy Result Other, percentage of patients ([4]; 10 µg E2): 21.9%
- Endometrial Biopsy Result Abnormal, number of patients ([4]; 10 µg E2, hyperplasia or carcinoma): 0
- Endometrial Biopsy Result Abnormal, percentage of patients ([4]; 25 µg E2): 3.1%
- Endometrial Biopsy Result Normal, number of patients ([4]; 25 µg E2): 28
- Endometrial Biopsy Result Normal, percentage of patients ([4]; 25 µg E2): 87.5%
- Endometrial Biopsy Result Other, number of patients ([4]; 25 µg E2): 3
- Endometrial Biopsy Result Other, percentage of patients ([4]; 25 µg E2): 9.4%
- Patients With Vaginal pH Values Below 5.5, (%) ([5]; 10 µg E2, Week 0): (30.3) %
- Patients With Vaginal pH Values Below 5.5, n/N ([5]; 10 µg E2, Week 0): 27/89
- Patients With Vaginal pH Values Below 5.5, (%) ([5]; 10 µg E2, Week 2): (79.8)^b %
- Patients With Vaginal pH Values Below 5.5, n/N ([5]; 10 µg E2, Week 2): 67/84
- Patients With Vaginal pH Values Below 5.5, (%) ([5]; 10 µg E2, Week 7): (71.3)^c %
- Patients With Vaginal pH Values Below 5.5, n/N ([5]; 10 µg E2, Week 7): 57/80
- Patients With Vaginal pH Values Below 5.5, (%) ([5]; 10 µg E2, Week 12): (76.1)^b %
- Patients With Vaginal pH Values Below 5.5, n/N ([5]; 10 µg E2, Week 12): 54/71
- Patients With Vaginal pH Values Below 5.5, (%) ([5]; 25 µg E2, Week 0): (34.4) %
- Patients With Vaginal pH Values Below 5.5, n/N ([5]; 25 µg E2, Week 0): 31/90
- Patients With Vaginal pH Values Below 5.5, (%) ([5]; 25 µg E2, Week 2): (73.6)^a %
- Patients With Vaginal pH Values Below 5.5, n/N ([5]; 25 µg E2, Week 2): 64/87
- Patients With Vaginal pH Values Below 5.5, n/N ([5]; 25 µg E2, Week 7): 71/83
- Patients With Vaginal pH Values Below 5.5, (%) ([5]; 25 µg E2, Week 12): (79.7)^b %
- Patients With Vaginal pH Values Below 5.5, n/N ([5]; 25 µg E2, Week 12): 63/79
- percentage of patients with vaginal pH values below 5.5 [5, 8]: approximately 35%
- percentage of subjects with both superficial vaginal and urethral cells less than or equal to 5% ([6]; 10 µg E2): 85%
- subjects with percentages of both superficial vaginal and urethral cells less than or equal to 5% ([6]; 10 µg E2): 53 subjects
- percentage of subjects with increases in percentages of both superficial vaginal and urethral cells ([6]; 10 µg E2): 71%
- subjects with increases in percentages of both superficial vaginal and urethral cells ([6]; 10 µg E2): 44 subjects
- percentage of subjects with both superficial vaginal and urethral cells less than or equal to 5% ([6]; 25 µg E2): 81%
- subjects with percentages of both superficial vaginal and urethral cells less than or equal to 5% ([6]; 25 µg E2): 57 subjects
- percentage of subjects with increases in percentages of both superficial vaginal and urethral cells ([6]; 25 µg E2): 74%
- subjects with increases in percentages of both superficial vaginal and urethral cells ([6]; 25 µg E2): 52 subjects
- percentage of superficial urethral cells, Mean ([7]; 10 µg E2, Week 0): 2.5%
- percentage of superficial urethral cells, Mean ([7]; 10 µg E2, Week 2): 16.7%
- percentage of superficial urethral cells, mean Change from baseline ([7]; 10 µg E2, Week 2): 14.1^c %
- percentage of superficial urethral cells, Mean ([7]; 10 µg E2, Week 7): 13.5%
- percentage of superficial urethral cells, mean Change from baseline ([7]; 10 µg E2, Week 7): 10.7%
- percentage of superficial urethral cells, Mean ([7]; 10 µg E2, Week 12): 9.5%
- percentage of superficial urethral cells, mean Change from baseline ([7]; 10 µg E2, Week 12): 6.8%
- percentage of superficial urethral cells, Mean ([7]; 25 µg E2, Week 0): 3.2%
- percentage of superficial urethral cells, Mean ([7]; 25 µg E2, Week 2): 21.9%
- percentage of superficial urethral cells, mean Change from baseline ([7]; 25 µg E2, Week 2): 19.2^a,b %
- percentage of superficial urethral cells, Mean ([7]; 25 µg E2, Week 7): 17.6%
- percentage of superficial urethral cells, mean Change from baseline ([7]; 25 µg E2, Week 7): 14.2^d %
- percentage of superficial urethral cells, Mean ([7]; 25 µg E2, Week 12): 11.2%
- percentage of superficial urethral cells, mean Change from baseline ([7]; 25 µg E2, Week 12): 7.5%
